Data on seven compounds can be found in PubChem BioAssay (NCI).

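How tested: cells in 96-well plates exposed to compound for 48 hours at five concentrations. TGI is the concentration that stops growth completely.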

Test systems include LXFL 529 NSCLC; SNB-78 CNS; XF 498 CNS; HOP-18 NSCLC; M19-MEL melanoma; DMS 114 small cell lung; DMS 273 small cell lung; KM20L2 colon; RXF-631 renal.
What all share (test): inhibition of tumour cell growth, NCI panel, 48 h

As to `CC1(C)CC(=O)C2=C(C1)S/C(=C1/SC3=C(S1)C(=O)CC(C)(C)C3)S2`, the TGI with LXFL 529 NSCLC, in the assay with SNB-78 CNS, in the assay with XF 498 CNS, in the assay with HOP-18 NSCLC, in the assay with M19-MEL melanoma and in the assay on DMS 114 small cell lung was > 251 µM throughout. Moreover, the TGI in the assay on DMS 273 small cell lung and with KM20L2 colon was > 251 µM each time.

`CC(C)OC(=O)C1=C(O)c2ccccc2S(=O)(=O)N1`: the TGI in the assay with LXFL 529 NSCLC, in the assay with SNB-78 CNS, with XF 498 CNS, with HOP-18 NSCLC, with M19-MEL melanoma and with RXF-631 renal was > 100 µM each time. Also, the TGI with DMS 273 small cell lung and with KM20L2 colon was > 100 µM each time.

Consider `Cc1ccc(S(=O)(=O)N/N=c2\c(C)c(C3=NS(=O)(=O)c4cc(S(N)(=O)=O)c(Cl)cc4N3)oc3c(Cl)cc(Cl)cc23)cc1`, for which the TGI in the assay on LXFL 529 NSCLC, with SNB-78 CNS, in the assay on HOP-18 NSCLC, in the assay on M19-MEL melanoma, in the assay with RXF-631 renal and with DMS 114 small cell lung was > 100 µM throughout. The TGI in the assay on DMS 273 small cell lung is 54 µM; in the assay on KM20L2 colon, > 100 µM.

Consider `Cc1ccc(C[P+]2(c3ccccc3)CCCCC2)cc1`, for which the TGI with LXFL 529 NSCLC is 85.6 µM; in the assay with SNB-78 CNS, 92.4 µM; with XF 498 CNS, 0.537 µM; in the assay with M19-MEL melanoma, 50.5 µM; in the assay on DMS 114 small cell lung, 64.1 µM; in the assay on DMS 273 small cell lung it was > 100 µM. The TGI in the assay with KM20L2 colon is > 100 µM.

For the compound `COc1cc(-c2cc(=O)c3c(O)c(OC)c(OC)c(OC)c3o2)ccc1O`, the TGI in the assay with LXFL 529 NSCLC is > 100 µM; in the assay on SNB-78 CNS it was 70.1 µM; in the assay with HOP-18 NSCLC, > 100 µM; in the assay on M19-MEL melanoma, > 100 µM; in the assay with DMS 114 small cell lung, 77.8 µM; with DMS 273 small cell lung, 30.5 µM. The TGI with KM20L2 colon is > 100 µM.

Consider `CC(Oc1ccc(OCC2CCCCC2)cc1)C(N)=O` (configuration not stated), for which the TGI with LXFL 529 NSCLC, in the assay with SNB-78 CNS, in the assay with XF 498 CNS, in the assay on HOP-18 NSCLC, with M19-MEL melanoma and with DMS 114 small cell lung was > 100 µM throughout. The TGI in the assay on DMS 273 small cell lung was > 100 µM.

For the compound `N=c1nc2n(cc1F)[C@@H]1O[C@H](CO)[C@@H](O)[C@@H]1O2`, the TGI in the assay with LXFL 529 NSCLC, in the assay with SNB-78 CNS, with XF 498 CNS, in the assay with HOP-18 NSCLC, with M19-MEL melanoma and in the assay on DMS 273 small cell lung was > 100 µM in each case. The TGI with KM20L2 colon is > 100 µM.
